# Data as given in PubChem BioAssay AID2060605 (Molecular Pharmacology Branch, DTP, NCI, 2025).
# Test system: 947758-054-R-J2-PDC spheroid growth, percent test/control
# Experiment: Anticancer human tumor 947758-054-R-J2-PDC patient-derived colon adenocarcinoma cell line growth inhibition [CLK]
# Settings: spheroids with HUVEC and MSC; for IC50: curve of first compound; for viability, T/C: stronger effect = lower value
# In short: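 Patient-derived tumor cells grown as complex spheroids with HUVEC endothelial cells and mesenchymal stem cells, treated with drug combinations. Concentrations descend in half-log steps from near clinical Cmax, or from 10 microM if Cmax unknown.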
# [1] = second compound 0.0316 µM, first compound 0.0316 µM
# [2] = second compound 0.0316 µM, first compound 0.1 µM
# [3] = second compound 0.0316 µM, first compound 0.316 µM
# [4] = second compound 0.0316 µM, first compound 1 µM
# [5] = second compound 0.0316 µM, first compound 3.16 µM
# [6] = second compound 0.0316 µM, first compound 10 µM
# [7] = second compound 0.1 µM, first compound 0.0316 µM
# [8] = second compound 0.1 µM, first compound 0.1 µM
# [9] = second compound 0.1 µM, first compound 0.316 µM
# [10] = second compound 0.1 µM, first compound 1 µM
# [11] = second compound 0.1 µM, first compound 3.16 µM
# [12] = second compound 0.1 µM, first compound 10 µM
# [13] = second compound 0.316 µM, first compound 0.0316 µM
# [14] = second compound 0.316 µM, first compound 0.1 µM
# [15] = second compound 0.316 µM, first compound 0.316 µM
# [16] = second compound 0.316 µM, first compound 1 µM
# [17] = second compound 0.316 µM, first compound 3.16 µM
# [18] = second compound 0.316 µM, first compound 10 µM
# [19] = second compound 1 µM, first compound 0.0316 µM
# [20] = second compound 1 µM, first compound 0.1 µM
# [21] = second compound 1 µM, first compound 0.316 µM
# [22] = second compound 1 µM, first compound 1 µM
# [23] = second compound 1 µM, first compound 3.16 µM
# [24] = second compound 1 µM, first compound 10 µM
# [25] = second compound 3.16 µM, first compound 0.0316 µM
# [26] = second compound 3.16 µM, first compound 0.1 µM
# [27] = second compound 3.16 µM, first compound 0.316 µM
# [28] = second compound 3.16 µM, first compound 1 µM
# [29] = second compound 3.16 µM, first compound 3.16 µM
# [30] = second compound 3.16 µM, first compound 10 µM
# [31] = second compound 10 µM, first compound 0.0316 µM
# [32] = second compound 10 µM, first compound 0.1 µM
# [33] = second compound 10 µM, first compound 0.316 µM
# [34] = second compound 10 µM, first compound 1 µM
# [35] = second compound 10 µM, first compound 3.16 µM
# [36] = second compound 10 µM, first compound 10 µM
# 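Note: spheroids exposed to compounds for one week before readout.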
# 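Throughout, for viability, T/C: 100% = DMSO vehicle control wells.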
compound,measurement,setting,value
CC1(C)CCC(CN2CCN(c3ccc(C(=O)NS(=O)(=O)c4ccc(NCC5CCOCC5)c([N+](=O)[O-])c4)c(Oc4cnc5[nH]ccc5c4)c3)CC2)=C(c2ccc(Cl)cc2)C1 + CN1CCN(c2cc(C(=O)Nc3cc4cc(-c5cnn(C)c5)ccc4cn3)ccn2)CC1,IC50,second compound 0.0316 µM,5540 nM
same,IC50,second compound 0.1 µM,6730 nM
same,IC50,second compound 0.316 µM,< 31.6 nM
same,IC50,second compound 1 µM,< 31.6 nM
same,IC50,second compound 3.16 µM,< 31.6 nM
same,IC50,second compound 10 µM,< 31.6 nM
same,"viability, T/C",[1],106%
same,"viability, T/C",[2],142%
same,"viability, T/C",[3],113%
same,"viability, T/C",[4],86.5%
same,"viability, T/C",[5],101%
same,"viability, T/C",[6],6.09%
same,"viability, T/C",[7],174%
same,"viability, T/C",[8],220%
same,"viability, T/C",[9],181%
same,"viability, T/C",[10],178%
same,"viability, T/C",[11],139%
same,"viability, T/C",[12],2.94%
same,"viability, T/C",[13],4.83%
same,"viability, T/C",[14],6.64%
same,"viability, T/C",[15],4.64%
same,"viability, T/C",[16],5.62%
same,"viability, T/C",[17],4.76%
same,"viability, T/C",[18],2.09%
same,"viability, T/C",[19],0.18%
same,"viability, T/C",[20],2.13%
same,"viability, T/C",[21],1.78%
same,"viability, T/C",[22],0.17%
same,"viability, T/C",[23],1.22%
same,"viability, T/C",[24],0.59%
same,"viability, T/C",[25],0.97%
same,"viability, T/C",[26],1.19%
same,"viability, T/C",[27],0.31%
same,"viability, T/C",[28],0.2%
same,"viability, T/C",[29],0.16%
same,"viability, T/C",[30],3.63%
same,"viability, T/C",[31],0.86%
same,"viability, T/C",[32],3.93%
same,"viability, T/C",[33],1.09%
same,"viability, T/C",[34],0.43%
same,"viability, T/C",[35],0.52%
same,"viability, T/C",[36],0.32%
CC1(C)CCC(CN2CCN(c3ccc(C(=O)NS(=O)(=O)c4ccc(NCC5CCOCC5)c([N+](=O)[O-])c4)c(Oc4cnc5[nH]ccc5c4)c3)CC2)=C(c2ccc(Cl)cc2)C1 + CNC(=O)c1ccc(Nc2nc(OC3CCCC3)c3c(-c4ccc5nc(C)oc5c4)c[nH]c3n2)c(OC)c1,IC50,second compound 0.0316 µM,2890 nM
same,IC50,second compound 0.1 µM,3200 nM
same,IC50,second compound 0.316 µM,2440 nM
same,IC50,second compound 1 µM,2300 nM
same,IC50,second compound 3.16 µM,751 nM
same,IC50,second compound 10 µM,35.2 nM
same,"viability, T/C",[1],105%
same,"viability, T/C",[2],80.1%
same,"viability, T/C",[3],93.6%
same,"viability, T/C",[4],94.4%
same,"viability, T/C",[5],46.3%
same,"viability, T/C",[6],1.33%
same,"viability, T/C",[7],104%
same,"viability, T/C",[8],113%
same,"viability, T/C",[9],82.1%
same,"viability, T/C",[10],94%
same,"viability, T/C",[11],47.8%
same,"viability, T/C",[12],0.8%
same,"viability, T/C",[13],105%
same,"viability, T/C",[14],85.2%
same,"viability, T/C",[15],70.7%
same,"viability, T/C",[16],76.8%
same,"viability, T/C",[17],46.9%
same,"viability, T/C",[18],1.58%
same,"viability, T/C",[19],64.8%
same,"viability, T/C",[20],56.7%
same,"viability, T/C",[21],55.8%
same,"viability, T/C",[22],68.5%
same,"viability, T/C",[23],45.8%
same,"viability, T/C",[24],0.6%
same,"viability, T/C",[25],59.1%
same,"viability, T/C",[26],33.4%
same,"viability, T/C",[27],63.3%
same,"viability, T/C",[28],48.4%
same,"viability, T/C",[29],26.5%
same,"viability, T/C",[30],2.21%
same,"viability, T/C",[31],55%
same,"viability, T/C",[32],42.5%
same,"viability, T/C",[33],40.2%
same,"viability, T/C",[34],42.3%
same,"viability, T/C",[35],16.3%
same,"viability, T/C",[36],2.68%
